{"source": "paper PMC5424495", "key": {"[1]": {"experiment": "same transimination equilibrium: L1 (bis-hexylimine calix[4]arene) + diamine 3 = C1 + 2 hexylamine", "details": "the molecule shown is the open-chain precursor, CD3CN, 2.5 mM, 25.0 °C, 2 steps"}, "[2]": {"experiment": "reversible transimination ring closure of 1,3-distal diimine cone-calix[4]arene (tetrakis(2-ethoxyethoxy)) with alpha,omega-diaminoalkanes H2N(CH2)nNH2, displacing hexylamine chain stopper; no catalyst; thermodynamic equilibrium in dynamic library", "details": "the molecule shown is the open-chain precursor, CD3CN, 2.5 mM, 25.0 °C"}}, "data": [{"smiles": "CCCCCC/N=C/c1cc2c(OCCOCC)c(c1)Cc1cccc(c1OCCOCC)Cc1cc(/C=N/CCCCCN)cc(c1OCCOCC)Cc1cccc(c1OCCOCC)C2", "note": "[C1d (diamine 3d, n=5)]", "values": [{"measurement": "ring closure, K", "setting": "[1]; 20-membered ring", "value": 3, "unit": "M"}, {"measurement": "ring closure, effective molarity", "setting": "[2]; 20-membered ring", "value": 1.5, "unit": "M"}]}, {"smiles": "CCCCCC/N=C/c1cc2c(OCCOCC)c(c1)Cc1cccc(c1OCCOCC)Cc1cc(/C=N/CCN)cc(c1OCCOCC)Cc1cccc(c1OCCOCC)C2", "note": "[C1a (diamine 3a, n=2)]", "values": [{"measurement": "ring closure, K", "setting": "[1]; 17-membered ring", "value": 0.025, "unit": "M"}, {"measurement": "ring closure, effective molarity", "setting": "[2]; 17-membered ring", "value": 0.05, "unit": "M"}]}, {"smiles": "CCCCCC/N=C/c1cc2c(OCCOCC)c(c1)Cc1cccc(c1OCCOCC)Cc1cc(/C=N/CCCCN)cc(c1OCCOCC)Cc1cccc(c1OCCOCC)C2", "note": "[C1c (diamine 3c, n=4)]", "values": [{"measurement": "ring closure, K", "setting": "[1]; 19-membered ring", "value": 0.03, "unit": "M"}, {"measurement": "ring closure, effective molarity", "setting": "[2]; 19-membered ring", "value": 0.01, "unit": "M"}]}, {"smiles": "CCCCCC/N=C/c1cc2c(OCCOCC)c(c1)Cc1cccc(c1OCCOCC)Cc1cc(/C=N/CCCN)cc(c1OCCOCC)Cc1cccc(c1OCCOCC)C2", "note": "[C1b (diamine 3b, n=3)]", "values": [{"measurement": "ring closure, K", "setting": "[1]; 18-membered ring", "value": 0.9, "unit": "M"}, {"measurement": "ring closure, effective molarity", "setting": "[2]; 18-membered ring", "value": 0.5, "unit": "M"}]}, {"smiles": "CCCCCC/N=C/c1cc2c(OCCOCC)c(c1)Cc1cccc(c1OCCOCC)Cc1cc(/C=N/CCCCCCN)cc(c1OCCOCC)Cc1cccc(c1OCCOCC)C2", "note": "[C1e (diamine 3e, n=6)]", "values": [{"measurement": "ring closure, K", "setting": "[1]; 21-membered ring", "value": 0.026, "unit": "M"}, {"measurement": "ring closure, effective molarity", "setting": "[2]; 21-membered ring", "value": 0.01, "unit": "M"}]}]}
